The values that follow come from PubChem BioAssay (NCI).

Several values for one entry are separate records, joined by “and”; a condition that tells them apart may be missing. Equal entries are not always repeated.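 Test compounds were applied to cells in 96-well plates for 48 hours at 5 doses. Abbreviation: GI50, concentration required for 50% inhibition of growth. Definition used: TGI = concentration required for complete inhibition of growth.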 A value given as a limit tells only on which side of the number the result lay.

Some test systems named below: M14 melanoma; KM12 colon; HT29 colon; SF-295 CNS; HOP-92 NSCLC; IGROV1 ovarian; TK-10 renal; SK-MEL-2 melanoma; SK-OV-3 ovarian; EKVX NSCLC.
Common to all, as to assay: inhibition of tumour cell growth, NCI panel, 48 h

Regarding `O=C(O)CCNS(=O)(=O)c1ccc(NC(=O)c2ccccc2)cc1`, the TGI in the experiment with M14 melanoma, in the experiment with KM12 colon, in the experiment with HT29 colon, in the experiment with SF-295 CNS, with HOP-92 NSCLC and with IGROV1 ovarian was more than 100 µM each time. The TGI in the experiment with TK-10 renal, in the experiment on SK-MEL-2 melanoma, in the experiment with SK-OV-3 ovarian and with EKVX NSCLC was more than 100 µM in each case.
With `CCC1(O)C(=O)OCc2c1cc1n(c2=O)Cc2cc3ccccc3nc2-1` (configuration not stated), the TGI in the experiment with M14 melanoma was 0.0271 µM; in the experiment on KM12 colon it was more than 100 µM; in the experiment on HT29 colon, 0.394 µM; in the experiment on SF-295 CNS, 0.226 µM; in the experiment with HOP-92 NSCLC, 23.9 µM; with IGROV1 ovarian, 5.96 µM. For the same compound, the TGI with TK-10 renal was found to be 50.5 µM; in the experiment with SK-MEL-2 melanoma it was 3.52 µM; in the experiment on SK-OV-3 ovarian it was 7.11 µM; with EKVX NSCLC, 0.488 µM.
For the compound `Cn1ncc(-c2ccc3c(=O)[nH]nc(CN)c3c2)c1-c1c(F)c(Cl)cc(OC2CC2)c1C#N`, the GI50 with M14 melanoma is 14.2 µM and 13.4 µM; with KM12 colon, 13.9 µM and 12.4 µM; in the experiment on HT29 colon, 11.6 µM and 10.3 µM; with SF-295 CNS, 14.3 µM and 13.3 µM; in the experiment on HOP-92 NSCLC it was 12.9 µM and 10.1 µM; in the experiment on IGROV1 ovarian, 14.2 µM and 11.6 µM. The GI50 is 16.2 µM and 13.7 µM with TK-10 renal; 15.3 µM and 13.6 µM with SK-MEL-2 melanoma; 20.4 µM and 17.4 µM with SK-OV-3 ovarian; 14.9 µM and 14 µM in the experiment with EKVX NSCLC. The TGI with M14 melanoma is 28.9 µM and 27.5 µM; with KM12 colon it was 28.3 µM and 25.6 µM; in the experiment on HT29 colon, 29.6 µM and 22.7 µM; with SF-295 CNS, 28.4 µM and 27.2 µM; in the experiment on HOP-92 NSCLC it was 31.1 µM and 25.5 µM; with IGROV1 ovarian it was 30.1 µM and 24.6 µM. Besides, the TGI in the experiment with TK-10 renal was 31.8 µM and 27.2 µM; in the experiment on SK-MEL-2 melanoma, 29.1 µM and 26.8 µM; in the experiment with SK-OV-3 ovarian it was 40.5 µM and 33.3 µM; in the experiment on EKVX NSCLC it was 30.5 µM and 29.6 µM.
As to `CC1=C2C(=C[C@@](C)(CO)[C@@H]2OC(=O)N(C)CCN(C)C(=O)OC(C)(C)C)C(=O)[C@](C)(O)C12CC2`, the GI50 is 6.36 µM in the experiment on M14 melanoma; 9.9 µM with KM12 colon; 2.32 µM in the experiment with HT29 colon; 1.8 µM in the experiment with SF-295 CNS; 8.08 µM with HOP-92 NSCLC; 1.97 µM in the experiment with IGROV1 ovarian. Moreover, the GI50 was 13.6 µM in the experiment with TK-10 renal, 7.63 µM with SK-MEL-2 melanoma, 6.93 µM with SK-OV-3 ovarian and 10.7 µM in the experiment with EKVX NSCLC. The TGI in the experiment on M14 melanoma is 20.8 µM; in the experiment with KM12 colon, more than 50 µM; in the experiment with HT29 colon, more than 50 µM; with SF-295 CNS it was 33.1 µM; in the experiment with HOP-92 NSCLC, 25.1 µM; with IGROV1 ovarian, 18.8 µM. For the same compound, the TGI with TK-10 renal was 35.2 µM; in the experiment with SK-MEL-2 melanoma, 17.3 µM; in the experiment with SK-OV-3 ovarian it was 23 µM; in the experiment on EKVX NSCLC, 29.1 µM.
Turning to `CC(=O)c1c(C(F)(F)F)n([O-])c2ccccc2[n+]1=O`, the GI50 in the experiment on M14 melanoma is 1.63 µM; in the experiment on KM12 colon it was 1.19 µM; in the experiment on HT29 colon, 1.3 µM; with SF-295 CNS, 1.07 µM; in the experiment on HOP-92 NSCLC, 1.22 µM; with IGROV1 ovarian, 1.02 µM. The GI50 in the experiment on TK-10 renal is 1.2 µM; in the experiment on SK-MEL-2 melanoma, 4.56 µM; with SK-OV-3 ovarian, 3.17 µM; in the experiment on EKVX NSCLC it was 3.47 µM. The TGI with M14 melanoma turned out to be 7.47 µM; with KM12 colon it was 3.43 µM; with HT29 colon it was 8.3 µM; in the experiment with SF-295 CNS, 4.53 µM; in the experiment on HOP-92 NSCLC it was 4.35 µM; in the experiment with IGROV1 ovarian, 3.78 µM. Also, the TGI in the experiment with TK-10 renal was 5.59 µM; with SK-MEL-2 melanoma it was more than 100 µM; with SK-OV-3 ovarian it was 23.9 µM; in the experiment on EKVX NSCLC, 8.01 µM.
Regarding `Oc1cccc(Nc2nc3ccccc3c3occc23)c1`, the GI50 is 14.9 µM with M14 melanoma; 3.24 µM in the experiment with KM12 colon; 2.34 µM in the experiment with SF-295 CNS; 9.07 µM in the experiment with HOP-92 NSCLC; 5.21 µM with TK-10 renal; 13.2 µM in the experiment with SK-MEL-2 melanoma. Also, the GI50 in the experiment with SK-OV-3 ovarian is 11.7 µM; with EKVX NSCLC, 14.6 µM. Besides, the TGI in the experiment on M14 melanoma amounted to 28.2 µM; in the experiment with KM12 colon, 13 µM; in the experiment on SF-295 CNS it was 11.7 µM; with HOP-92 NSCLC it was 21.3 µM; in the experiment with TK-10 renal it was 12.2 µM; with SK-MEL-2 melanoma, 27.7 µM. Also, the TGI with SK-OV-3 ovarian was determined as 23.9 µM; with EKVX NSCLC, 28.5 µM.
Regarding `O=C1OCC2=C1C(c1cccc(F)c1)c1cc3c(cc1N2CCO)OCO3` (configuration not stated), the GI50 in the experiment with M14 melanoma was 0.357 µM; in the experiment with KM12 colon, 1.48 µM; in the experiment on HT29 colon, 1.52 µM; in the experiment with SF-295 CNS, 1.2 µM; in the experiment with HOP-92 NSCLC it was 3.1 µM; in the experiment with IGROV1 ovarian it was 4.19 µM. Also, the GI50 was 15.6 µM with TK-10 renal, 2.46 µM with SK-MEL-2 melanoma, 1.73 µM in the experiment on SK-OV-3 ovarian and 3.03 µM in the experiment with EKVX NSCLC. Also, the TGI with M14 melanoma, in the experiment with KM12 colon, in the experiment with HT29 colon, in the experiment on SF-295 CNS, in the experiment on HOP-92 NSCLC and in the experiment on IGROV1 ovarian was more than 50 µM throughout. The TGI in the experiment with TK-10 renal, with SK-MEL-2 melanoma, in the experiment on SK-OV-3 ovarian and with EKVX NSCLC was more than 50 µM throughout.
Take `O=C(NCCCOC(=O)CCCCCCCCC(=O)OCCCNC(=O)NC(=O)c1c[nH]c(=O)[nH]c1=O)NC(=O)c1c[nH]c(=O)[nH]c1=O`: the TGI with M14 melanoma, in the experiment with KM12 colon, in the experiment with SF-295 CNS, in the experiment with HOP-92 NSCLC, with IGROV1 ovarian and in the experiment with TK-10 renal was more than 100 µM in each case. In addition, the TGI with SK-MEL-2 melanoma, with SK-OV-3 ovarian and in the experiment on EKVX NSCLC was more than 100 µM in each case.
In the case of `CCN1C(=O)N(CC)C2C1NN=c1s/c(=C\c3ccc(Cl)cc3Cl)c(=O)n12` (configuration not stated), the GI50 in the experiment on M14 melanoma was 0.0304 µM; in the experiment with KM12 colon, 0.0274 µM; in the experiment on HT29 colon, 0.0329 µM; in the experiment with SF-295 CNS, 0.0315 µM; in the experiment on HOP-92 NSCLC, 0.275 µM; with IGROV1 ovarian, 0.0437 µM. Moreover, the GI50 with TK-10 renal was 13.4 µM; with SK-MEL-2 melanoma, 0.0592 µM; with SK-OV-3 ovarian, 0.0448 µM; with EKVX NSCLC it was 0.0423 µM. For the same compound, the TGI in the experiment on KM12 colon is more than 32.6 µM; with HT29 colon it was 12.3 µM; with SF-295 CNS it was 27.1 µM; with HOP-92 NSCLC, 64 µM; with IGROV1 ovarian, more than 44.4 µM; in the experiment with TK-10 renal, 59.3 µM. Moreover, the TGI in the experiment with SK-MEL-2 melanoma was more than 60 µM; with SK-OV-3 ovarian, more than 100 µM; in the experiment on EKVX NSCLC it was more than 100 µM.
In the case of `CCOC(=O)Cc1nc2ccc3c(c2[nH]c1=O)C(=O)c1ccccc1C3=O`, the TGI in the experiment on M14 melanoma, with KM12 colon, in the experiment with HT29 colon, with HOP-92 NSCLC, with IGROV1 ovarian and in the experiment on TK-10 renal was more than 100 µM in each case. Also, the TGI with SK-MEL-2 melanoma was more than 100 µM; in the experiment on SK-OV-3 ovarian it was more than 100 µM; in the experiment on EKVX NSCLC, 28.5 µM.
Regarding `CCOc1ccccc1CCN=C1NC(=O)/C(=C/c2ccc3ncccc3c2)S1`, the GI50 in the experiment with M14 melanoma was 2.17 µM; with KM12 colon, 0.725 µM; in the experiment on HT29 colon it was 0.783 µM; in the experiment with SF-295 CNS, 0.672 µM; in the experiment on HOP-92 NSCLC it was 3.28 µM; in the experiment with IGROV1 ovarian it was 1.47 µM. Also, the GI50 with TK-10 renal was 1.35 µM; in the experiment on SK-MEL-2 melanoma it was 4.64 µM; with SK-OV-3 ovarian, 1.81 µM. Moreover, the TGI in the experiment with M14 melanoma was 10.4 µM; with KM12 colon, 10.1 µM; in the experiment on HT29 colon it was 3.16 µM; in the experiment on SF-295 CNS it was more than 6 µM; in the experiment with HOP-92 NSCLC it was 14.6 µM; in the experiment on IGROV1 ovarian, 15 µM. Also, the TGI with TK-10 renal was more than 23.3 µM; in the experiment on SK-MEL-2 melanoma, 11.5 µM; in the experiment with SK-OV-3 ovarian it was 8.46 µM.
With `Oc1cc(Cc2ccccc2)c(Cc2ccccc2)cc1O`, the TGI in the experiment with M14 melanoma, in the experiment on KM12 colon, with HT29 colon, in the experiment with SF-295 CNS, in the experiment on HOP-92 NSCLC and with IGROV1 ovarian was more than 10 µM each time. Further, the TGI in the experiment on SK-MEL-2 melanoma, in the experiment with SK-OV-3 ovarian and with EKVX NSCLC was more than 10 µM throughout.
For the compound `O=C(COc1ccccc1Cl)N1N=C(c2ccc(Cl)cc2)CC1(O)c1ccccc1` (configuration not stated), the TGI in the experiment with M14 melanoma, in the experiment on KM12 colon, with HT29 colon, in the experiment with SF-295 CNS, in the experiment with HOP-92 NSCLC and with IGROV1 ovarian was more than 100 µM each time. The TGI in the experiment on TK-10 renal, with SK-MEL-2 melanoma and in the experiment on SK-OV-3 ovarian was more than 100 µM each time.
For `CN(C)c1cc2ccccc2oc1=O`, the TGI with M14 melanoma, with KM12 colon, with HT29 colon, in the experiment with SF-295 CNS, in the experiment on HOP-92 NSCLC and in the experiment on IGROV1 ovarian was more than 100 µM each time. Also, the TGI in the experiment with TK-10 renal, in the experiment on SK-MEL-2 melanoma and in the experiment on EKVX NSCLC was more than 100 µM in each case.
Take `Cn1ccnc1CCc1c(Cl)cccc1Cl`: the TGI with M14 melanoma, with KM12 colon, in the experiment on HT29 colon, in the experiment on SF-295 CNS, with HOP-92 NSCLC and in the experiment with IGROV1 ovarian was more than 100 µM each time. For the same compound, the TGI in the experiment with TK-10 renal, in the experiment on SK-MEL-2 melanoma and with SK-OV-3 ovarian was more than 100 µM in each case.
